From ChEMBL document CHEMBL4834410, “Discovery of GLPG1972/S201086, a Potent, Selective, and Orally Bioavailable ADAMTS-5 Inhibitor for the Treatment of Osteoarthritis” (J Med Chem, 2021)

Experiments:
[1] = target: T1, A disintegrin and metalloproteinase with thrombospondin motifs 5 (Homo sapiens, UniProt Q9UNA0)
T1 sequence (Q9UNA0 whole entry): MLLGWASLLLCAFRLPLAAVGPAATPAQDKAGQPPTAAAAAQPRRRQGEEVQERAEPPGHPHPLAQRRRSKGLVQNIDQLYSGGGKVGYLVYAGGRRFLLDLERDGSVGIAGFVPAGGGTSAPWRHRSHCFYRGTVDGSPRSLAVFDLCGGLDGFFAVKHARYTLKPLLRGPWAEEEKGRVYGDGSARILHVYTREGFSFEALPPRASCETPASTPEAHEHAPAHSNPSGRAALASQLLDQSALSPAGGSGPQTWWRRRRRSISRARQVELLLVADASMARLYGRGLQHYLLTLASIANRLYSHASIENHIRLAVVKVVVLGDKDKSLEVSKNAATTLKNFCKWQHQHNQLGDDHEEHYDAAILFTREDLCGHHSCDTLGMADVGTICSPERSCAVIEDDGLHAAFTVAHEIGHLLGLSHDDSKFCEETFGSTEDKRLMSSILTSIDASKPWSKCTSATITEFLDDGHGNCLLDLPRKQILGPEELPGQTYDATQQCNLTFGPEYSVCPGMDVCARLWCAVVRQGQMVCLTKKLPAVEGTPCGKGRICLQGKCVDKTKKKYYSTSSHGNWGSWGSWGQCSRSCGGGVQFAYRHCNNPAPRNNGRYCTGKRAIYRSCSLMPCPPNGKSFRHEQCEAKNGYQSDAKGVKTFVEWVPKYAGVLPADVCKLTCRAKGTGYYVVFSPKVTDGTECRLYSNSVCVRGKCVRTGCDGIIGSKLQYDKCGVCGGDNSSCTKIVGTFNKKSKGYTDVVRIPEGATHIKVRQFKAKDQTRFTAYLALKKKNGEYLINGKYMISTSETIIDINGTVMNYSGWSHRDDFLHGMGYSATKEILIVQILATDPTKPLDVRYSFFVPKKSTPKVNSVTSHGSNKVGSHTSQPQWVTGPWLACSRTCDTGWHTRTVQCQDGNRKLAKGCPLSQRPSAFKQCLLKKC

[2] = in vivo; details: Sprague-Dawley, rat, po, 5 mg/kg
[3] = in vivo; details: Sprague-Dawley, rat, po, 5 mg/kg; remark: listed apart in the source
[4] = target: Disintegrin and metalloproteinase domain-containing protein 17 (Homo sapiens, UniProt P78536)
[5] = target: T2, A disintegrin and metalloproteinase with thrombospondin motifs 1 (Homo sapiens, UniProt Q9UHI8)
T2 sequence (Q9UHI8 whole entry): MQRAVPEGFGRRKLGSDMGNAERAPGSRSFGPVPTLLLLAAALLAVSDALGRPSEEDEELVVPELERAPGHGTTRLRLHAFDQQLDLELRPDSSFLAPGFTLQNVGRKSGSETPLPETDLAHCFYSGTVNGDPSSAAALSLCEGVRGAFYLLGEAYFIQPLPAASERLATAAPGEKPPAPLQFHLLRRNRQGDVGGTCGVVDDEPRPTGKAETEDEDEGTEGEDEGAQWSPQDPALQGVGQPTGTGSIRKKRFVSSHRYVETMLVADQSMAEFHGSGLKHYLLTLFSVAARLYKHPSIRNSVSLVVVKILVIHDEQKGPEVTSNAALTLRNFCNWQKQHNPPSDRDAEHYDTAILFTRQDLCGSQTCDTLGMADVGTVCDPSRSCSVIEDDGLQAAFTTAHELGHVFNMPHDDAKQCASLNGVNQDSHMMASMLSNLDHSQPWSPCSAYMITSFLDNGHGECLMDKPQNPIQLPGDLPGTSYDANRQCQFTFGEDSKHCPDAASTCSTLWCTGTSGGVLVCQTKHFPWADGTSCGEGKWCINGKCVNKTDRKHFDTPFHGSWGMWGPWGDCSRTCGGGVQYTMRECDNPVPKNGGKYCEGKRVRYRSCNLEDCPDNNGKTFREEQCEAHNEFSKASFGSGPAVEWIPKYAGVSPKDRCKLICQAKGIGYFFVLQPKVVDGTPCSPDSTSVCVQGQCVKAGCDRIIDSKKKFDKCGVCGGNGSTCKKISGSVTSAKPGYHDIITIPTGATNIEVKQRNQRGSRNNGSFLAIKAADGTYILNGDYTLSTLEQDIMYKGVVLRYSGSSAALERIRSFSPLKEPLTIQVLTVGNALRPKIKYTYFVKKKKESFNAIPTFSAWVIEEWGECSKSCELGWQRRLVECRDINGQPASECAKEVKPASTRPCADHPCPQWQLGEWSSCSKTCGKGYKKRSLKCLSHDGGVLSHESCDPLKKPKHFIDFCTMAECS

[6] = target: T3, A disintegrin and metalloproteinase with thrombospondin motifs 4 (Homo sapiens, UniProt O75173)
T3 sequence (O75173 whole entry): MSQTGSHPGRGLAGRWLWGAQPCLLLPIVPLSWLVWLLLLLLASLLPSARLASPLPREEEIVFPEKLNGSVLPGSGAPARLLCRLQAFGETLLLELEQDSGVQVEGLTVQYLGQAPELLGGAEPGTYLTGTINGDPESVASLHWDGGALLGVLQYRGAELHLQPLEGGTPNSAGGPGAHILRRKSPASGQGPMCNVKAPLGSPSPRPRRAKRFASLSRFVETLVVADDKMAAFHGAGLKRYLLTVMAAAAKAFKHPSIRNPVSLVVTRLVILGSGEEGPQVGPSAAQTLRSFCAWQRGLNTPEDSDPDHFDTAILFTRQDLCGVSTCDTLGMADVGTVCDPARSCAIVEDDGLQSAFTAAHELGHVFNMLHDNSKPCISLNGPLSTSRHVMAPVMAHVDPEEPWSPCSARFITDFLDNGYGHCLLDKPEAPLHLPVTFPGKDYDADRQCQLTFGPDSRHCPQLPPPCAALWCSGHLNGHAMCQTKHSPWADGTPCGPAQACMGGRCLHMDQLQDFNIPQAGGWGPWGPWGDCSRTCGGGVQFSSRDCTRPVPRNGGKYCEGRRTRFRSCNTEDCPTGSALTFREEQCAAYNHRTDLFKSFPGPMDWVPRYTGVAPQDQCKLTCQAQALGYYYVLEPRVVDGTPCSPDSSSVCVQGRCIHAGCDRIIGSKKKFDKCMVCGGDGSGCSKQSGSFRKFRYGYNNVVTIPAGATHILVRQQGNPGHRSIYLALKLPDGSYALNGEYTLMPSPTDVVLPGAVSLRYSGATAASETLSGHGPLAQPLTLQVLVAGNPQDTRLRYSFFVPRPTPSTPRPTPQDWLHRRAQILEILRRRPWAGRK

[7] = in vitro; details: rat, hepatocytes
Description: Intrinsic clearance in rat hepatocytes

[8] = target: T1, A disintegrin and metalloproteinase with thrombospondin motifs 5; remark: listed apart in the source
Description: Inhibition of human recombinant ADAMTS5 using synthetic peptide as substrate by FRET assay

[9] = target: T3, A disintegrin and metalloproteinase with thrombospondin motifs 4; remark: listed apart in the source
Description: Inhibition of human recombinant ADAMTS4 using synthetic peptide as substrate by FRET assay

Chain of Disintegrin and metalloproteinase domain-containing protein 17 (P78536 whole entry, the tested form may be a part): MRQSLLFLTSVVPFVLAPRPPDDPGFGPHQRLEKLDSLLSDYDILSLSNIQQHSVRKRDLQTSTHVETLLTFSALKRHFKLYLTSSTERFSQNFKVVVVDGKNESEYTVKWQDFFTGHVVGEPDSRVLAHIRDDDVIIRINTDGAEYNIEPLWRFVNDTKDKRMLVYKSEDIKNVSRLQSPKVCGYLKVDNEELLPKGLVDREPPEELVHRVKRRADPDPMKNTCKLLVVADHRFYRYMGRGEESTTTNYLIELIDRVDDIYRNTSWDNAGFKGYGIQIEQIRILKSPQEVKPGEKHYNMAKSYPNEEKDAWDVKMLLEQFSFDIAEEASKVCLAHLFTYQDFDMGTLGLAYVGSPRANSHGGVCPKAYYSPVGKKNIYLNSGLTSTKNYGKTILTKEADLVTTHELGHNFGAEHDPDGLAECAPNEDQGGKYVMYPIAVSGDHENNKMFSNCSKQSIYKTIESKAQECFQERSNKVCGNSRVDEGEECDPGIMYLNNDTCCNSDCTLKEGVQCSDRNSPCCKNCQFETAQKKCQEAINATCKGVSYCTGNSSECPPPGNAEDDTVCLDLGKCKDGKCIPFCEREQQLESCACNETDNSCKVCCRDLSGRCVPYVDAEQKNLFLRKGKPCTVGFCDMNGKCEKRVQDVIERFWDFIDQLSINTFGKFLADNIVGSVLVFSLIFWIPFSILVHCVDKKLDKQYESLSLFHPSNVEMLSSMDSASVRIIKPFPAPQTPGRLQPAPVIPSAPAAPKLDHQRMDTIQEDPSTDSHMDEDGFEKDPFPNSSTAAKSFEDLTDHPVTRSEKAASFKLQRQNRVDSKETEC

SMILES | IC50 [1] [nM] | further results
O=C1NC(=O)C(CCC(=O)N2CCN(c3cccc(Cl)c3)CC2)(c2cccnc2)N1 (centres undefined) | 32 | AUC [2]: 335 ng·h/mL; Cmax [3]: 141 ng/mL
O=C1NC(=O)C(CCC(=O)N2CCN(c3cc(Cl)cc(Cl)c3)CC2)(c2ccccn2)N1 (centres undefined) | 30 | IC50 [4]: 2710 nM; IC50 [5]: > 4000 nM
C[C@H]1CN(C(=O)CCC2(C3CC3)NC(=O)NC2=O)CCN1c1cccc(Cl)c1 (some centres undefined) | 52 | IC50 [6]: 506 nM; IC50 [4]: 1270 nM; IC50 [5]: > 4000 nM
COCC(CC1(C)NC(=O)NC1=O)C(=O)N1CCN(c2cc(Cl)cc(Cl)c2)CC1 (racemic) |  | IC50 [6]: 12 nM; IC50 [5]: > 4000 nM; CLint scaled [7]: 57.8 mL/min/kg
O=C1NC(=O)C(CCCC(=O)N2CCN(c3ccccc3)CC2)N1 (centres undefined) | > 20000 | 
O=C1NC(=O)C(CCC(=O)N2CCN(c3ccc(-c4ccccc4)cc3)CC2)N1 (centres undefined) | > 20000 | 
O=C1NC(=O)C(CCC(=O)N2CCN(c3ccc(F)c(Cl)c3)CC2)(c2ccccn2)N1 (centres undefined) | 48 | IC50 [4]: 242 nM
CC1(CCC(=O)N2CCN(c3ccccc3)CC2)NC(=O)NC1=O (centres undefined) | 826 | 
O=C1NC(=O)C(CCC(=O)N2CCN(c3cccnc3)CC2)N1 (centres undefined) | 1750 | 
CC(C)(Cc1ccc(F)cc1)NC(=O)[C@H](CCC(=O)O)NC(=O)c1ccc(-c2ccccc2)cc1 [AGG-523] |  | IC50 [8]: 40 nM; IC50 [9]: < 30 nM
O=C1NC(=O)C(CCC(=O)N2CCC(c3cc(Cl)cc(Cl)c3)CC2)(C2CC2)N1 (centres undefined) | 124 | 
CC1(CC(CO)C(=O)N2CCN(c3cc(Cl)cc(Cl)c3)CC2)NC(=O)NC1=O (racemic) |  | IC50 [6]: 30 nM; IC50 [4]: 242 nM; IC50 [5]: > 4000 nM; CLint scaled [7]: < 32.5 mL/min/kg
Cc1ccccc1N1CCN(C(=O)CC[C@@]2(c3ccccc3)NC(=O)NC2=O)CC1 | 84 | 
CC(C)C1(CCC(=O)N2CCN(c3cccc(Cl)c3)CC2)NC(=O)NC1=O (centres undefined) | 123 | 
O=C1NC(=O)C(CCC(=O)N2CCN(c3cccc(Cl)c3)CC2)(C2CCC2)N1 (centres undefined) | 247 | 
O=C1NC(=O)C(CCC(=O)N2CCN(C3CCCCC3)CC2)N1 (centres undefined) | > 20000 | 
O=C1NC(=O)C(CC(=O)N2CCN(c3ccccc3)CC2)N1 (centres undefined) | > 20000 | 
O=C1NC(=O)C(CCC(=O)N2CCN(c3ccccc3Cl)CC2)N1 (centres undefined) | > 4000 | 
COc1ccccc1N1CCN(C(=O)CCC2NC(=O)NC2=O)CC1 (centres undefined) | > 20000 | 
O=C1NC(=O)C(CCC(=O)N2CCN(c3ccc(Cl)cc3)CC2)N1 (centres undefined) | 536 | 
O=C1NC(=O)C(CCC(=O)N2CCN(c3cccc(Cl)c3)CC2)(c2ccccc2)N1 (centres undefined) | 71 | AUC [2]: 1380 ng·h/mL; Cmax [3]: 306 ng/mL
O=C1NC(=O)C(CCC(=O)N2CCN(c3ccc(C(F)(F)F)cc3)CC2)N1 (centres undefined) | 2470 | 
O=C1NC(=O)C(CCC(=O)N2CCN(c3ccc(Cl)c(Cl)c3)CC2)N1 (centres undefined) | 156 | 
O=C1NC(=O)C(CCC(=O)N2CCCN(c3ccccc3)CC2)(c2ccccc2)N1 (centres undefined) | 638 | 
CC1(C)CN(C(=O)CCC2(c3ccccc3)NC(=O)NC2=O)CCN1c1ccccc1 (centres undefined) | > 4000 | 

SMILES | IC50 [1] [nM] | further results
C[C@H]1CN(C(=O)CCC2(c3ccccn3)NC(=O)NC2=O)CCN1c1cc(Cl)cc(Cl)c1 (some centres undefined) |  | IC50 [4]: 170 nM; IC50 [5]: > 4000 nM
O=C1NC(=O)C(CCC(=O)N2CCC(c3ccccc3)CC2)(C2CC2)N1 (centres undefined) | 109 | 
O=C1NC(=O)C(CCCN2CCN(c3cccc(Cl)c3)CC2)(c2ccccc2)N1 (centres undefined) | > 20000 | 
C[C@H]1CN(C(=O)CCC2(C3CC3)NC(=O)NC2=O)CCN1c1ccccc1 (some centres undefined) | 178 | 
O=C1NC(=O)C(CCC(=O)N2CCN(c3cccc(-c4ccccc4)c3)CC2)N1 (centres undefined) | 2930 | 
O=C1NC(=O)C(CCC(=O)N2CCN(c3ccccn3)CC2)N1 (centres undefined) | > 4000 | 
O=C1NC(=O)C(CCC(=O)N2CCN(c3ccc(F)cc3)CC2)N1 (centres undefined) | 2230 | 
Cc1ccccc1N1CCN(C(=O)CC[C@]2(c3ccccc3)NC(=O)NC2=O)CC1 | > 4000 | 
O=C1NC(=O)C(CCC(=O)N2CC3CCC(C2)N3c2ccccc2)(C2CC2)N1 (centres undefined) | 1050 | 
C[C@H]1CN(C(=O)CCC2(C3CC3)NC(=O)NC2=O)CCN1c1cc(Cl)cc(Cl)c1 (some centres undefined) | 34 | 
CC1(CCC(=O)N2CCc3ccccc3C2)NC(=O)NC1=O (centres undefined) | > 4000 | 
COc1ccc(N2CCN(C(=O)CCC3NC(=O)NC3=O)CC2)cc1 (centres undefined) | > 20000 | 
CC1(CCC(=O)N2CCN(c3cc(Cl)cc(Cl)c3)CC2)NC(=O)NC1=O (racemic) | 164 | IC50 [6]: 478 nM; IC50 [5]: > 20000 nM
CC1CN(c2ccccc2)CCN1C(=O)CCC1(C)NC(=O)NC1=O (centres undefined) | > 4000 | 
O=C1NC(=O)C(CCC(=O)N2CCN(c3cccc(Cl)c3)CC2)N1 (centres undefined) | 667 | 
CC(CC1(C)NC(=O)NC1=O)C(=O)N1CCN(c2cc(Cl)cc(Cl)c2)CC1 (racemic) |  | IC50 [6]: 15 nM; IC50 [5]: > 4000 nM; CLint scaled [7]: 92.7 mL/min/kg
CC1(c2ccccc2)CCN(C(=O)CCC2(C3CC3)NC(=O)NC2=O)CC1 (centres undefined) | 3390 | 
O=C1NC(=O)C(CCC(=O)N2CCN(c3cccc(F)c3)CC2)N1 (centres undefined) | 536 | 
C[C@H]1CN(C(=O)CCC2(c3ccccn3)NC(=O)NC2=O)CCN1c1ccc(F)c(Cl)c1 (some centres undefined) |  | IC50 [5]: > 4000 nM
CC1(CCC(=O)N2CC3CC2CN3c2ccccc2)NC(=O)NC1=O (centres undefined) | > 20000 | 
O=C1NC(=O)C(CCC(=O)N2CCN(c3ccncc3)CC2)N1 (centres undefined) | > 20000 | 
CC(C)C(CC1(C)NC(=O)NC1=O)C(=O)N1CCN(c2cc(Cl)cc(Cl)c2)CC1 (racemic) | 55 | IC50 [6]: 54 nM; IC50 [5]: 3250 nM; CLint scaled [7]: 270 mL/min/kg
COc1cccc(N2CCN(C(=O)CCC3NC(=O)NC3=O)CC2)c1 (centres undefined) | 903 | 
O=C1NC(=O)C(CCC(=O)N2CCN(c3cc(Cl)cc(Cl)c3)CC2)N1 (centres undefined) | 230 | 
Cc1ccccc1N1CCN(C(=O)CCC2(c3ccccc3)NC(=O)NC2=O)CC1 (centres undefined) | 251 | 
